Test results from US11578055B2, “Triazacyclododecansulfonamide (“TCD”)-based protein secretion inhibitors” (KEZAR LIFE SCIENCES, priority 2018, dated 2023).
pEC50, pIC50: −log10 of the molar value.

Legend:
[1] = In Vitro Microsome Stability Assay (human); assay type: in vitro ADME; conditions: human liver microsomes, 30 min w/ NADPH
How it was run: (§1)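 The value reported is the percentage of parent left after 30 min, calculated from analyte/IS peak-area ratios relative to time zero by LC-MS/MS. Incubations ran at 37° C in 0.1 M potassium phosphate with NADPH and microsomes (stock 20 mg/mL), with compound added from a 0.25 mM DMSO stock. Acetonitrile containing IS stopped the reactions.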

[2] = system: full length IL-2 (amino acids 1-153) fused to Gaussia Luciferase; experiment: Dox Induced IL2-FL-Gluc Assay; assay type: cell-based; conditions: 24 hr, Dox inducible, 293FRT/TO cells; read-out: 24 hr Dox Inducible IL2FLGluc 293FRT/TO: Mean IC50
How it was run: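 Compounds in DMSO/media with doxycycline were added to cells plated the previous day and incubated at 37° C, 5% CO2. Cells: stable Flp-In 293 T-REx line, Dox-regulated expression of IL-2 (aa 1-153) fused at its C-terminus to Gaussia luciferase.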

[3] = system: HER3 signal sequence plus 4 amino acids fused to Gaussia Luciferase (HER3-ss+4aa/Gaussia Luciferase); experiment: Dox Induced HER3-ss-Gluc Assay; assay type: cell-based; conditions: 24 hr, doxycycline induced, Flp-In 293 T-REx cells; read-out: 24 hr Dox Inducible Her3(ss + 4) Gluc 293FRT/TO: Mean 1050
Description: FIp-In 293 T-REx™ cells were transfected with pcDNA™5/FRT/TO plasmid inserted with cDNA encoding Gaussia Luciferase fused to the 3′ end of cDNA encoding HER3 signal sequence plus 4 amino acids (N-[…]-C) (SEQ ID NO: 2). Transfected cells were selected for resistance to the selectable markers Hygromycin and Blasticidin to create a stable cell line that contained the HER3-ss+4aa/Gaussia Luciferase cDNA insert whose expression was regulated under the T-REx™ system. The day before assay, cells were trypsinized and plated in 384-well tissue culture plates. The next day, compound dilutions in DMSO/media containing doxycycline were added to the wells and incubated at 37° C., 5% CO2.
For chemical structures that include one or more stereoisomers, but are illustrated without indicating stereochemistry, the assay data refers to a mixture of stereoisomers.

[4] = system: full length TNFα (amino acids 1-233) fused to Gaussia Luciferase; experiment: Dox Induced TNFα-FL-Gluc Assay; assay type: cell-based; conditions: 24 hr, Dox inducible, 293FRT/TO cells; read-out: 24 hr Dox Inducible TNFaFLGluc 293FRT/TO: Mean IC50
How it was run: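 Compounds diluted in DMSO/medium with doxycycline were incubated at 37° C, 5% CO2 with 293 T-REx cells stably carrying a Tet-regulated TNFα(1-233)-Gaussia luciferase construct. Data for structures drawn without stereochemistry refer to stereoisomer mixtures.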

[5] = In Vitro Microsome Stability Assay (rat); assay type: in vitro ADME; conditions: rat liver microsomes, 30 min w/ NADPH
How it was run: as §1

[6] = system: multiple myeloma cell line NCl-H929; experiment: H929 Cell Viability Assay; assay type: cell-based, human; conditions: Homo sapiens, NCI-H929, 48 h, H929, Celltiter-Glo
How it was run: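 Viability was determined by CellTiter-Glo luminescence after a 48 h, 37 °C exposure of NCI-H929 cells to serial compound dilutions in medium containing 10% FBS. Where stereochemistry is not shown, values refer to a mix of stereoisomers.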

[7] = In Vitro Microsome Stability Assay (monkey); assay type: in vitro ADME; conditions: monkey liver microsomes, 30 min w/ NADPH
How it was run: as §1

[8] = In Vitro Microsome Stability Assay (mouse); assay type: in vitro ADME; conditions: mouse liver microsomes, 30 min w/ NADPH
How it was run: as §1

[9] = system: multiple myeloma cell line U266B1; experiment: U266 Cell Viability Assay; assay type: cell-based, human; conditions: Homo sapiens, U-266; 48 hr, U266, Celltiter-Glo
How it was run: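 Viability was measured by CellTiter-Glo luminescence after 48 h compound exposure at 37° C, 5% CO2. The cells were U266B1 multiple myeloma cells grown in RPMI 1640 plus 10% FBS. Where stereochemistry is not shown, values apply to the stereoisomer mixture.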

[10] = system: PD1 signal sequence plus 10 amino acids fused to Gaussia Luciferase (PD1-ss+10aa/Gaussia Luciferase); experiment: Dox Induced PD1-ss-Gluc Assay; assay type: cell-based; conditions: 24 hr, Dox inducible, 293FRT/TO cells; read-out: 24 hr Dox Inducible PD1ssGluc 293FRT/TO: Mean IC50
How it was run: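 Compound dilutions in DMSO/media containing doxycycline were applied to a stable, inducible 293 T-REx line carrying the luciferase fusion, then incubated at 37 °C, 5% CO2. Where stereochemistry is not drawn, values relate to isomer mixtures.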

SMILES	Liver Microsome Stability-% Left after 30 min w/ NADPH (%) Human [1] [%]	pIC50 [2]	pIC50 [3]	pIC50 [4]	Liver Microsome Stability-% Left after 30 min w/ NADPH (%) Rat [5] [%]	pEC50 [6]	Liver Microsome Stability-% Left after 30 min w/ NADPH (%) Monkey [7] [%]	Liver Microsome Stability-% Left after 30 min w/ NADPH (%) Mouse [8] [%]	pEC50 [9]	pIC50 [10]
C[C@H]1CN(S(=O)(=O)c2ccc(N(C)C)cc2)CCCN(CC(C)(C)C)CCCN(S(=O)(=O)N2CCc3cc(Cl)ccc3C2)C1 [A107, 4-{[(3S)-5-[(6-chloro-1,2,3,4-tetrahydroisoquinolin-2-yl)sulfonyl]-9-(2,2-dimethylpropyl)-3-methyl-1,5,9-triazacyclododecan-1-yl]sulfonyl}-N,N-dimethylaniline]	83.9	7.14	7.35	6.22	19.3	5.93	25.0	16.1	< 4.60	7.58
C[C@H]1CN(S(=O)(=O)c2ccc(N(C)C)cc2)CCCN(CCC2CCCC2)CCCN(S(=O)(=O)N2CCc3cc(Cl)ccc3C2)C1 [A120, 4-{[(3S)-5-[(6-chloro-1,2,3,4-tetrahydroisoquinolin-2-yl)sulfonyl]-9-(2-cyclopentylethyl)-3-methyl-1,5,9-triazacyclododecan-1-yl]sulfonyl}-N,N-dimethylaniline]	4.78	7.56	7.50	6.62	28.5	6.17	16.3	19.2	< 4.60	7.81
C[C@H]1CN(S(=O)(=O)c2ccc(N(C)C)cc2)CCCN(CCC2CC2)CCCN(S(=O)(=O)N2CCc3cc(Cl)ccc3C2)C1 [A122, 4-{[(3S)-5-[(6-chloro-1,2,3,4-tetrahydroisoquinolin-2-yl)sulfonyl]-9-(2-cyclopropylethyl)-3-methyl-1,5,9-triazacyclododecan-1-yl]sulfonyl}-N,N-dimethylaniline]	0.38	6.87	6.96	6.05	0.17	5.62	0.15	36.4	< 4.60	7.28
C[C@H]1CN(S(=O)(=O)c2ccc(N(C)C)cc2)CCCN(Cc2ccon2)CCCN(S(=O)(=O)N2CCc3cc(Cl)ccc3C2)C1 [A124, 4-{[(3S)-5-[(6-chloro-1,2,3,4-tetrahydroisoquinolin-2-yl)sulfonyl]-3-methyl-9-[(1,2-oxazol-3-yl)methyl]-1,5,9-triazacyclododecan-1-yl]sulfonyl}-N,N-dimethylaniline]	18.9	6.10	6.04	< 4.60	1.25	< 4.60	1.91	1.01	< 4.60	6.22
C[C@H]1CN(S(=O)(=O)c2ccc(C(=O)N(C)C)cc2)CCCN(CC2CCCCC2)CCCN(S(=O)(=O)N2CCc3cc(Cl)ccc3C2)C1 [A179, 4-{[(3S)-5-[(6-chloro-1,2,3,4-tetrahydroisoquinolin-2-yl)sulfonyl]-9-(cyclohexylmethyl)-3-methyl-1,5,9-triazacyclododecan-1-yl]sulfonyl}-N,N-dimethylbenzamide]	0.04	7.14	6.40	5.49	0.18	4.95	0.26	0.5	< 4.60	6.57
CC[C@H]1CN(S(=O)(=O)c2ccc(N(C)C)cc2)CCCN(CC2CCCCC2)CCCN(S(=O)(=O)N2CCc3cc(Cl)ccc3C2)C1 [A182]	53.7	6.59	6.69	5.71	41.9	< 4.60	41.5	61.7	< 4.60	7.10
C[C@H]1CN(S(=O)(=O)c2ccc(N(C)C)cc2)CCCNCCCN(S(=O)(=O)N2CCc3cc(Cl)ccc3C2)C1 [A183, 4-{[(3S)-5-[(6-chloro-1,2,3,4-tetrahydroisoquinolin-2-yl)sulfonyl]-3-methyl-1,5,9-triazacyclododecan-1-yl]sulfonyl}-N,N-dimethylaniline]	10.1	5.60	5.67	–	3.17	5.21	0.75	7.39	< 4.60	5.84
C[C@H]1CN(S(=O)(=O)c2ccc(N(C)C)cc2)CCCN(CC2CCCCC2)CCCN(S(=O)(=O)N(C)Cc2ccccc2)C1 [A184, (3S)-N-benzyl-9-(cyclohexylmethyl)-5-[4-(dimethylamino)benzenesulfonyl]-N,3-dimethyl-1,5,9-triazacyclododecane-1-sulfonamide]	2.56	6.63	6.81	5.97	7.47	5.16	1.23	5.64	< 4.60	7.00
C[C@H]1CN(S(=O)(=O)c2ccc(N(C)C)cc2)CCCN(CC2CCC(F)(F)CC2)CCCN(S(=O)(=O)N2CCc3cc(Cl)ccc3C2)C1 [A185, 4-{[(3S)-5-[(6-chloro-1,2,3,4-tetrahydroisoquinolin-2-yl)sulfonyl]-9-[(4,4-difluorocyclohexyl)methyl]-3-methyl-1,5,9-triazacyclododecan-1-yl]sulfonyl}-N,N-dimethylaniline]	21.8	7.07	7.07	6.24	37.8	5.83	10.0	30.1	< 4.60	7.36
COc1cc(F)cc(N2CCN(S(=O)(=O)N3CCCN(CC4CCCCC4)CCCN(S(=O)(=O)c4ccc(N(C)C)cc4)C[C@H](C)C3)C[C@H]2C)c1 [A196]	–	6.98	7.11	5.83	–	< 4.60	–	–	< 4.60	7.51
C[C@H]1CN(S(=O)(=O)c2ccc(N(C)C)cc2)CCCCN(S(=O)(=O)N2CCc3cc(Cl)ccc3C2)C1 [B21]	0.17	< 4.60	–	< 4.60	0.06	< 4.60	0.03	0.16	< 4.60	5.40
